target: T1, human GLP-1 receptor (Homo sapiens, UniProt P43220); assay: GLP-1R cAMP assay (cAMP accumulation in CHO cells stably overexpressing the human GLP-1 receptor, HitHunter kit); type: cell-based; details: CHO cells stably overexpressing human GLP-1R, 30 min, 20-point dose response in triplicate
T1 construct: expressed in transfected cells
Procedure, shortened: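 CHO cells stably expressing the human receptor (10,000/well) in HBSS with 10 mM HEPES and 625 μM IBMX, given compound as a 20-point dose response in triplicate for 30 min. cAMP was read by luminescent enzyme-complementation detection after overnight incubation, and EC50 was fitted from dose-response curves.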

T1 sequence (P43220 24-463): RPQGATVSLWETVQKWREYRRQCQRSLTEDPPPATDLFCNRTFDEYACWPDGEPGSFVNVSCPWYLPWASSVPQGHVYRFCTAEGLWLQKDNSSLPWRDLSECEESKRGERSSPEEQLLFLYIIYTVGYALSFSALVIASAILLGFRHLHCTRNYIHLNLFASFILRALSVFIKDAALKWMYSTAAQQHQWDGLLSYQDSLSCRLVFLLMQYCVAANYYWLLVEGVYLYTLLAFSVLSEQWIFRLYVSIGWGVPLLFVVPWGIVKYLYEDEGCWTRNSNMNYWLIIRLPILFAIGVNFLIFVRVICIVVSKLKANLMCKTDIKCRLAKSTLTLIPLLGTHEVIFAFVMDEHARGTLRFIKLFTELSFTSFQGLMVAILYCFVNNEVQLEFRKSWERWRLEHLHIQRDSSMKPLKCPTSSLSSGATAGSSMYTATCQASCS

Structure (SMILES)	EC50
C[C@H]1C[C@@H](Oc2ccnc(COc3ccc(F)cc3F)n2)CCN1Cc1nc2ccc(C(=O)O)cc2n1C[C@H]1CCS1(=O)=O [Compound 610, 2-(((2S,4S)-4-((2-((2,4-difluorophenoxy)methyl)pyrimidin-4-yl)oxy)-2-methylpiperidin-1-yl)methyl)-1-(((R)-1,1-dioxidothietan-2-yl)methyl)-1H-benzo[d]imidazole-6-carboxylic acid]	0.1 to 1 nM
C[C@H]1C[C@@H](Oc2ccnc(COc3ccc(F)cc3F)n2)CCN1Cc1nc2ccccc2n1C[C@@H]1CCO1 [Compound 633, 2-(((2S,4S)-4-((2-((2,4-Difluorophenoxy)methyl)pyrimidin-4-yl)oxy)-2-methylpiperidin-1-yl)methyl)-1-(((S)-oxetan-2-yl)methyl)-1H-benzo[d]imidazole]	10 to 100 nM
C[C@H]1C[C@@H](Oc2ccnc(COc3ccc(F)cc3F)n2)CCN1Cc1nc2ccc(C(=O)O)cc2n1CC1(F)COC1 [Compound 582, 2-{[(2S,4S)-4-({2-[(2,4-Difluorophenoxy)methyl]pyrimidin-4-yl}oxy)-2-methylpiperidin-1-yl]methyl}-1-[(3-fluorooxetan-3-yl)methyl]-1H-1,3-benzodiazole-6-carboxylic acid]	0.1 to 1 nM
CC(c1nc2ccc(C(=O)O)cc2n1C[C@@H]1CCO1)N1CCC(Oc2ccnc(COc3ccc(F)cc3F)n2)CC1 (stereo partly drawn) [Compound 565, 2-(1-(4-((2-((2,4-Difluorophenoxy)methyl)pyrimidin-4-yl)oxy)piperidin-1-yl)ethyl)-1-(((S)-oxetan-2-yl)methyl)-1H-benzo[d]imidazole-6-carboxylic acid]	1 to 10 nM
C[C@H]1C[C@@H](Oc2ccnc(COc3ccc(F)cc3F)n2)CCN1Cc1nc2ccc(C(=O)O)cc2n1CC1(C(F)F)COC1 [Compound 583, 1-{[3-(difluoromethyl)oxetan-3-yl]methyl}-2-{[(2S,4S)-4-({2-[(2,4-difluorophenoxy)methyl]pyrimidin-4-yl}oxy)-2-methylpiperidin-1-yl]methyl}-1H-1,3-benzodiazole-6-carboxylic acid]	0.1 to 1 nM
C[C@H]1C[C@@H](Oc2ccnc(COc3ccc(F)cc3F)n2)CCN1Cc1nc2ccc(C(=O)O)cc2n1C[C@@H]1CCS1(=O)=O [Compound 611, 2-(((2S,4S)-4-((2-((2,4-difluorophenoxy)methyl)pyrimidin-4-yl)oxy)-2-methylpiperidin-1-yl)methyl)-1-(((S)-1,1-dioxidothietan-2-yl)methyl)-1H-benzo[d]imidazole-6-carboxylic acid]	0.1 to 1 nM
CO[C@H]1COC[C@H]1n1c(CN2CC[C@H](Oc3ccnc(COc4ccc(F)cc4F)n3)C[C@@H]2C)nc2ccc(C(=O)O)cc21 [Compound 577, 2-(((2S,4S)-4-((2-((2,4-Difluorophenoxy)methyl)pyrimidin-4-yl)oxy)-2-methylpiperidin-1-yl)methyl)-1-((3R,4R)-4-methoxytetrahydrofuran-3-yl)-1H-benzo[d]imidazole-6-carboxylic acid]	0.1 to 1 nM
C[C@H](Cn1c(CN2CC[C@H](Oc3ccnc(COc4ccc(F)cc4F)n3)C[C@@H]2C)nc2ccc(C(=O)O)cc21)OC1CC1 [Compound 618, 1-((R)-2-cyclopropoxypropyl)-2-(((2S,4S)-4-((2-((2,4-difluorophenoxy)methyl)pyrimidin-4-yl)oxy)-2-methylpiperidin-1-yl)methyl)-1H-benzo[d]imidazole-6-carboxylic acid]	0.1 to 1 nM
O=C(O)c1ccc2nc(CN3CC[C@H](Oc4ccnc(COc5ccc(Cl)cc5F)c4)C[C@@H]3CF)n(C[C@@H]3CCO3)c2c1 [Compound 555, 2-(((2R,4S)-4-((2-((4-Chloro-2-fluorophenoxy)methyl)pyridin-4-yl)oxy)-2-(fluoromethyl)piperidin-1-yl)methyl)-1-(((S)-oxetan-2-yl)methyl)-1H-benzo[d]imidazole-6-carboxylic acid]	< 0.1 nM
C[C@H]1C[C@@H](Oc2ccnc(COc3ccc(F)cc3F)n2)CCN1Cc1nc2ccc(CO)cc2n1C[C@@H]1CCO1 [Compound 639, (2-(((2S,4S)-4-((2-((2,4-difluorophenoxy)methyl)pyrimidin-4-yl)oxy)-2-methylpiperidin-1-yl)methyl)-1-(((S)-oxetan-2-yl)methyl)-1H-benzo[d]imidazol-6-yl)methanol]	10 to 100 nM

Continued, values first:

EC50	Structure (SMILES)
0.1 to 1 nM	N#Cc1ccc(OCc2nccc(O[C@H]3CCN(Cc4nc5ccc(C(=O)O)cc5n4C[C@@H]4CCO4)C[C@H]3F)n2)c(F)c1 [Compound 552, 2-{[(3R,4S)-4-({2-[(4-cyano-2-fluorophenoxy)methyl]pyrimidin-4-yl}oxy)-3-fluoropiperidin-1-yl]methyl}-1-{[(2S)-oxetan-2-yl]methyl}-1H-1,3-benzodiazole-6-carboxylic acid]
100 to 500 nM	N#Cc1ccc(OCc2nccc(O[C@H]3CC[C@@H](Cc4nc5ccc(C(=O)O)cc5n4C[C@@H]4CCO4)CC3)n2)c(F)c1 [Compound 641, 1-{[(2S)-oxetan-2-yl]methyl}-2-{[(1s,4s)-4-({2-[(4-cyano-2-fluorophenoxy)methyl]pyrimidin-4-yl}oxy)cyclohcxyl]methyl}-1H-1,3-benzodiazole-6-carboxylic acid]
0.1 to 1 nM	C[C@H]1C[C@@H](Oc2ccnc(COc3ccc(F)cc3F)n2)CCN1Cc1nc2ccc(C(=O)O)cc2n1CC1CCC1 [Compound 590, 1-(Cyclobutylmethyl)-2-{[(2S,4S)-4-({2-[(2,4-difluorophenoxy)methyl]pyrimidin-4-yl}oxy)-2-methylpiperidin-1-yl]methyl}-1H-1,3-benzodiazole-6-carboxylic acid]
1 to 10 nM	N#Cc1ccc(OCc2nccc(OC3CCN(Cc4nc5cnc(C(=O)O)cc5n4C[C@@H]4CCO4)CC3)n2)c(F)c1 [Compound 580, 2-{[4-({2-[(4-Cyano-2-fluorophenoxy)methyl]pyrimidin-4-yl}oxy)piperidin-1-yl]methyl}-1-{[(2S)-oxetan-2-yl]methyl}-1H-imidazo[4,5-c]pyridine-6-carboxylic acid]
0.1 to 1 nM	C[C@H]1C[C@@H](Oc2ccnc(COc3ccc(F)cc3F)n2)CCN1Cc1nc2ccc(C(=O)NS(C)(=O)=O)cc2n1C[C@@H]1CCO1 [Compound 563, 2-(((2S,4S)-4-((2-((2,4-Difluorophenoxy)methyl)pyrimidin-4-yl)oxy)-2-methylpiperidin-1-yl)methyl)-N-(methylsulfonyl)-1-(((S)-oxetan-2-yl)methyl)-1H-benzo[d]imidazole-6-carboxamide]
0.1 to 1 nM	C[C@H]1C[C@@H](Oc2ccnc(COc3ncc(Cl)cc3F)c2)CCN1Cc1nc2ccc(C(=O)O)cc2n1C[C@@H]1CCO1 [Compound 615, 2-(((2S,4S)-4-((2-(((5-Chloro-3-fluoropyridin-2-yl)oxy)methyl)pyridin-4-yl)oxy)-2-methylpiperidin-1-yl)methyl)-1-(((S)-oxetan-2-yl)methyl)-1H-benzo[d]imidazole-6-carboxylic acid]
0.1 to 1 nM	C[C@H]1C[C@@H](Oc2ccnc(COc3ncc(C#N)cc3F)n2)CCN1Cc1nc2ccc(C(=O)O)cc2n1C[C@@H]1CCCO1 [Compound 631, 2-(((2S,4S)-4-((2-(((5-cyano-3-fluoropyridin-2-yl)oxy)methyl)pyrimidin-4-yl)oxy)-2-methylpiperidin-1-yl)methyl)-1-(((S)-tetrahydrofuran-2-yl)methyl)-1H-benzo[d]imidazole-6-carboxylic acid]
< 0.1 nM	C[C@H]1C[C@@H](Oc2ccnc(COc3ccc(F)cc3F)n2)CCN1Cc1nc2c(F)cc(C(=O)O)cc2n1C[C@@H]1CCCO1 [Compound 621, 2-(((2S,4S)-4-((2-((2,4-Difluorophenoxy)methyl)pyrimidin-4-yl)oxy)-2-methylpiperidin-1-yl)methyl)-4-fluoro-1-(((S)-tetrahydrofuran-2-yl)methyl)-1H-benzo[d]imidazole-6-carboxylic acid]
0.1 to 1 nM	C[C@H]1C[C@@H](Oc2ccnc(COc3ncc(Cl)cc3F)n2)CCN1Cc1nc2ccc(C(=O)O)cc2n1CCOCC(F)(F)F [Compound 595, 2-{[(2S,4S)-4-[(2-{[(5-chloro-3-fluoropyridin-2-yl)oxy]methyl}pyrimidin-4-yl)oxy]-2-methylpiperidin-1-yl]methyl}-1-[2-(2,2,2-trifluoroethoxy)ethyl]-1H-1,3-benzodiazole-6-carboxylic acid]
0.1 to 1 nM	C[C@H]1C[C@@H](Oc2ccnc(COc3ncc(F)cc3F)n2)CCN1Cc1nc2c(F)cc(C(=O)O)cc2n1C[C@@H]1CCCO1 [Compound 622, 2-(((2S,4S)-4-((2-(((3,5-Difluoropyridin-2-yl)oxy)methyl)pyrimidin-4-yl)oxy)-2-methylpiperidin-1-yl)methyl)-4-fluoro-1-(((S)-tetrahydrofuran-2-yl)methyl)-1H-benzo[d]imidazole-6-carboxylic acid]
1 to 10 nM	C[C@H]1C[C@@H](Oc2ccnc(CNc3ncc(F)cc3Cl)n2)CCN1Cc1nc2ccc(C(=O)O)cc2n1C[C@@H]1CCO1 [Compound 624, 2-(((2S,4S)-4-((2-(((3-Chloro-5-fluoropyridin-2-yl)amino)methyl)pyrimidin-4-yl)oxy)-2-methylpiperidin-1-yl)methyl)-1-(((S)-oxetan-2-yl)methyl)-1H-benzo[d]imidazole-6-carboxylic acid]
0.1 to 1 nM	C[C@H]1C[C@@H](Oc2ccnc(COc3ccc(F)cc3C#N)n2)CCN1Cc1nc2ncc(C(=O)O)cc2n1C[C@@H]1CCO1 [Compound 556, 2-(((2S,4S)-4-((2-((2-Cyano-4-fluorophenoxy)methyl)pyrimidin-4-yl)oxy)-2-methylpiperidin-1-yl)methyl)-1-(((S)-oxetan-2-yl)methyl)-1H-imidazo[4,5-b]pyridine-6-carboxylic acid]
0.1 to 1 nM	Cc1cc2nc(CN3CC[C@H](Oc4ccnc(COc5ccc(F)cc5F)n4)C[C@@H]3C)n(C[C@@H]3CCO3)c2cc1C(=O)O [Compound 585, 2-{[(2S,4S)-4-({2-[(2,4-Difluorophenoxy)methyl]pyrimidin-4-yl}oxy)-2-methylpiperidin-1-yl]methyl}-5-methyl-1-{[(2S)-oxetan-2-yl]methyl}-1H-1,3-benzodiazole-6-carboxylic acid]

— patent US20260317309A1, “N-HETEROCYLIC GPCR RECEPTOR AGONISTS, PHARMACEUTICAL COMPOSITIONS COMPRISING THE SAME, AND METHODS FOR THEIR USE” (Carmot Therapeutics, Inc., priority 2022, published 2026)
